Laboratory results taken from patent publication US4061757A, “Compounds having juvenile hormone activity” (A/S Cheminova, priority 1971, dated 1977).

Tests used:
Tenebrio molitor L = test: Tenebrio test (topical application to pupae, morphological inhibition of adult characters); type: in vivo, Tenebrio molitor L (yellow mealworm); conditions: Table I; topical, acetone solution, 0.5 to 2 hours old pupae (150 mg), 27° C, 70% RH
Description: (§1) The biological tests are examplified by tests on the yellow mealworm, Tenebrio molitor L, Galleria mellonella L, Culex pipiens L, Aedes aegypti L and Drosophila melanogaster L.
Tenebrio test: The material in question is applied topically to the abdomen of 0.5 to 2 hours old pupae of the said species, as a solution in acetone. The pupae are held at 27° C and 70% RH, ecdysis occuring 5 to 7 days later. The degree of inhibition of adult characters is referred to an arbitrary scale, where a morphologically perfect adult is given the character 0%, and a perfect second pupae 100%. In Table 1 is given the morphological inhibition dose 50% (ID 50 morph.) for some of the chemicals invented, in μg per standard pupa (150 mg). ID 50 morph. refers to specimens showing predominantly adult characters in the front part, pupal characters in the abdomen.
ID50 morph is as said above the dose causing development of individuals showing predominantly adult characters in the front part and pupal characters in the abdomen. It is known that ID50 -doses in general are 10 times greater than ED50 -doses.

Culex pipiens L = test: Culex test (mature larvae, loss of 50% of test animals); type: in vivo; conditions: Table I, read-out: IC-50 eclos.
Description: The biological tests are examplified by tests on the yellow mealworm, Tenebrio molitor L, Galleria mellonella L, Culex pipiens L, Aedes aegypti L and Drosophila melanogaster L. Culex test: The compounds are tested on mature larvae. The concentration (IC-50 eclos.) is given in ppm.

Aedes aegypti L = test: Aedes test (same test as for Culex); type: in vivo; conditions: Table I, mature larvae, loss of 50% of test animals, read-out: IC-50 eclos
Description: as §1
Culex test: The compounds are tested on mature larvae. The concentration (IC-50 eclos.) is given in ppm.
Aedes test: The same test as for Culex.

[1] = tested on: Drosophila melanogaster L; test: Drosophila test (compound in agar based food, pupae which fail in ecdysis); type: in vivo; conditions: Table I, in artificial agar based food, pupae failing in ecdysis
Description: as §1
Drosophila test: One ml of acetone solution of the compound to be tested is mixed with an artificial agar based food mixture just before this solidifies. Ten less than one day old adult flies -- five of each sex -- are added, and all abnormalities observed for two generations. Juvenile hormone activity is especially noted in the pupae which fail in ecdysis. EC50 -eclos. is given in ppm.

Tenebrio = conditions: Table II, known compounds; dose causing abnormal development of 50% of treated pupae; data from Nature, Vol. 232, Aug. 13, 1971; cited from earlier work

Compound | ID-50 morph. (Tenebrio molitor L) [μg/pupa] | IC50 for inhibition of adult emergence (eclosion) (Culex pipiens L) [µg/mL] | IC50 (inhibition of eclosion) (Aedes aegypti L) [µg/mL] | EC-50 eclos [1] [ppm] | ED50 (Tenebrio)
CCOC(C)(C)CCCC(C)CCOc1ccc(CC)nc1 (centres unmarked) [Compound 39, 7-Ethoxy-3,7-dimethyl-1l-(96'-ethyl-3'-pyridyloxy)-octane] | 0.01 | < 10 | 0.5 | > 100 | –
C/C(=C\COc1ccc(C)cc1)CCC1OC1(C)C (centres unmarked) [R CH3, n 1] | – | – | – | – | 0,05 μg/pupa
